From patent US20250296939A1, “BENZOTHIOPHENE COMPOUND” (Kyoto Pharmaceutical Industries, Ltd., priority 2022, published 2025)

Experiments:
[1] = target: GST-fused human Keap1 (amino acid residues: 325-642) protein (Homo sapiens (Human), UniProt Q14145); assay: FP assay (in vitro): inhibition of binding between Nrf2 and Keap1 by fluorescence polarization; settings: 20 nM GST-fused human Keap1, 10 nM FITC-labeled Nrf2 peptide, 2 hr at room temperature
[2] = system: NQO1 activity in Hepa1c1c7 cells; assay: NAD(P)H: quinone oxidoreductase-1 (NQO1) enzyme induction assay (in vitro); format: cell-based, mouse; settings: Mus musculus, Hepa-1c1c7, NQO1 activity upon addition of 400 nM of test compound, about 48 hr, ratio from the base without the compound
Procedure, shortened: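 Mouse Hepa1c1c7 hepatoma cells were treated with 400 nM compound for about 48 h, then lysed with digitonin/EDTA. NQO1 activity was measured as menadione-mediated MTT reduction with a G6P/G6PDH NADPH-regenerating system, stopped with dicoumarol, and read at A610. Values are the activity ratio versus untreated base wells.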

[3] = system: NQO1 activity in rat kidney; assay: NQO1 activity assay in rat kidney (single administration); format: in vivo; settings: SD rats (male), oral 3 mg/kg single administration; for NQO1 activity 24 hr later: 24 hr after administration; for NQO1 activity 48 hr later: 48 hr after administration
Protocol: Experimental Example 3: NQO1 Activity Assay in Rat Kidney (Single Administration)
The test compound solution for administration was prepared by dissolving or suspending the test compound in 0.5 w/v % methylcellulose solution.
The test compound was administered orally (3 mg/kg, 2 mL/kg) to SD rats (male, Japan SLC). The solvent group was used as a control group. The test compound group was anesthetized with isoflurane 24 and 48 hr after administration, and the control group was anesthetized with isoflurane 24 hr after administration, and the rats were euthanized by abdominal aortotomy with blood release. The right kidney was immediately removed, and the renal cortex and medullary portion of the kidney were cut out for measurement of NQO1 activity.
Homogenization buffer (10 mM Tris-HCl, 250 mM sucrose, pH 7.4) and assay buffer (25 mM Tris-HCl, 0.7 mg/mL BSA, pH 7.4) were prepared.
1 mL of homogenization buffer was added to the collected kidney samples, and the organs were homogenized uniformly in ice using a Polytron homogenizer (PHYSCOTRON, Microtec Co. Ltd.) or TissueLyser II (QIAGEN). Homogenized samples were centrifuged (MX-305, TOMY) at 9000×g for 20 minutes at 4° C. The supernatant was then scalped with homogenization buffer to approximately 2 ml and ultracentrifuged (centrifuge; OptimaL-100XP, rotor; 50.4 Ti, Beckman Coulter) at 100,000×g for 60 min at 4° C. The protein concentration of the supernatant was measured with the Protein Assay BCA kit (#06385-00, Nacalai Tesque), and samples were diluted to 5 μg protein/30 μL with homogenization buffer. 2,6-Dichlorophenolindophenol (DCPIP) reaction buffer (assay buffer with 200 μM NADPH and 160 μM DCPIP, containing 1/1000 volume of DMSO or 20 μM dicoumarol DMSO solution) was prepared immediately before the measurement.
The 230 μL of each concentration of calibration solution was added to a 96-well plate (CORNING, 9017). To 30 μL of the sample solution was added 200 μL of DMSO-containing DCPIP reaction buffer or dicoumarol-containing DCPIP reaction buffer. The absorbance at 600 nm was immediately measured on a SpectraMax PLUS384 (Molecular devices) at 1 minute intervals for 10 minutes. […] A regression line was used to create the calibration curve.
The difference between the DCPIP decrease in the wells with DMSO-containing DCPIP reaction buffer and the DCPIP decrease in the wells with dicoumarol-containing DCPIP reaction buffer was divided by the amount of protein (mg) and time (min) to obtain NQO1 activity (nmol/mg/min). In Table 4 below, the NQO1 activity of the test compound-administered groups is expressed as a percentage of the control group.

Sequence of GST-fused human Keap1 (amino acid residues: 325-642) protein (Q14145 325-624 limits assumed): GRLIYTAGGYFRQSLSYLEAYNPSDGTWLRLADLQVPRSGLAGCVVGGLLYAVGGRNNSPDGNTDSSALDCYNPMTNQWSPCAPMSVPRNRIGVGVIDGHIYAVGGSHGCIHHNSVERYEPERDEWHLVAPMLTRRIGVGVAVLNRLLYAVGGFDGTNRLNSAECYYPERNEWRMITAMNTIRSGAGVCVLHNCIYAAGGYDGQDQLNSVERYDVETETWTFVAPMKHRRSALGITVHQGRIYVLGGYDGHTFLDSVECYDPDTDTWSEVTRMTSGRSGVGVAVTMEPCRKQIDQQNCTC

IC50 [1] [nM] | SMILES | fold induction at 0.4 µM [2] | NQO1 activity 24 hr later [3] | NQO1 activity 48 hr later [3]
10 to 30 | Cc1c([C@H](c2cc(CN3Cc4nc(O)ccc4OC4(CC4)C3)c3sccc3c2)C(C)(C)C(=O)O)ccc2c1nnn2C [Example 13, (3S)-3-(1,4-Dimethyl-1H-benzotriazol-5-yl)-3-{7-[(7′-hydroxy-3′H-spiro[cyclopropane-1,2′-pyrido[2,3-f][1,4]oxazepin]-4′(5′H)-yl)methyl]-1-benzothiophen-5-yl}-2,2-dimethylpropanoic acid] | > 5 | 6.5 percentage of the control group | 11.7 percentage of the control group
10 to 30 | Cc1c([C@H](CC(=O)O)c2cc(CN3Cc4nc(O)ccc4O[C@H](C4CC4)C3)c3sccc3c2)ccc2c1nnn2C [Example 5, (3R)-3-(7-{[(2R)-2-Cyclopropyl-7-hydroxy-2,3-dihydropyrido[2,3-f][1,4]oxazepin-4(5H)-yl]methyl}-1-benzothiophen-5-yl)-3-(1,4-dimethyl-1H-benzotriazol-5-yl)propanoic acid] | > 5 | 9.4 percentage of the control group | 10.9 percentage of the control group
≤ 10 | CC[C@@H]1CN(Cc2cc([C@@H](c3ccc4c(nnn4C)c3C)C(C)(C)C(=O)O)cc3ccsc23)Cc2nc(O)ccc2O1 [Example 11, (3S)-3-(1,4-Dimethyl-1H-benzotriazol-5-yl)-3-(7-{[(2R)-2-ethyl-7-hydroxy-2,3-dihydropyrido[2,3-f][1,4]oxazepin-4(5H)-yl]methyl}-1-benzothiophen-5-yl)-2,2-dimethylpropanoic acid] | > 5 | 9.3 percentage of the control group | 11.0 percentage of the control group
